Source: ChEMBL document CHEMBL1201861, “Genomics of Drug Sensitity in Cancer screening data, Wellcome Trust Sanger Institute”
pIC50: −log10 of the molar value.

Key:
Experiment in all cases: cells
SK-LMS-1 = type: functional, cell-based, Homo sapiens; settings: Homo sapiens, SK-LMS-1;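 also: growth inhibition of human SK-LMS-1 cells, read out with a cell viability assay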
BE-13 = type: functional, cell-based, Homo sapiens; settings: Homo sapiens, BE-13;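 also: growth inhibition of human BE-13 cells, measured with a cell viability assay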
Description: SANGER: Inhibition of human BE-13 cell growth in a cell viability assay.

ACN = type: functional, cell-based, Homo sapiens; settings: Homo sapiens, ACN;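 also: growth inhibition of the human ACN cell line, read out via cell viability testing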
Description: SANGER: Inhibition of human ACN cell growth in a cell viability assay.

ES3 = type: functional, cell-based, Homo sapiens; settings: Homo sapiens, ES3;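 also: growth inhibition of ES3 cells, read out with a cell viability assay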
Description: SANGER: Inhibition of human ES3 cell growth in a cell viability assay.

GI-1 = type: functional, cell-based, Homo sapiens; settings: Homo sapiens, GI-1;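 also: growth inhibition of human GI-1 cells, measured with a cell viability readout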
Description: SANGER: Inhibition of human GI-1 cell growth in a cell viability assay.

L-363 = type: functional, cell-based, Homo sapiens; settings: Homo sapiens, L-363
MLMA = type: functional, cell-based, Homo sapiens; settings: Homo sapiens, MLMA;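 also: growth inhibition of MLMA cells (human), determined through a cell viability readout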
Description: SANGER: Inhibition of human MLMA cell growth in a cell viability assay.

MZ7-mel = type: functional, cell-based, Homo sapiens; settings: Homo sapiens, MZ7-mel;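 also: growth inhibition of human MZ7-mel cells, measured by a cell viability assay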
Description: SANGER: Inhibition of human MZ7-mel cell growth in a cell viability assay.

MOLT-4 = type: functional, cell-based, Homo sapiens; settings: Homo sapiens, MOLT-4;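 also: growth inhibition of MOLT-4 cells, determined with a cell viability readout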
NH-12 = type: functional, cell-based, Homo sapiens; settings: Homo sapiens, NH-12;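 also: growth inhibition of NH-12 cells, read out with a cell viability assay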
Description: SANGER: Inhibition of human NH-12 cell growth in a cell viability assay.

SW684 = type: functional, cell-based, Homo sapiens; settings: Homo sapiens, SW684;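 also: growth inhibition of human SW684 cells, measured by a cell viability assay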
MFM-223 = type: functional, cell-based, Homo sapiens; settings: Homo sapiens, MFM-223
Description: SANGER: Inhibition of human MFM-223 cell growth in a cell viability assay.

LAMA-84 = type: functional, cell-based, Homo sapiens; settings: Homo sapiens, LAMA-84;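 also: growth inhibition of LAMA-84 cells, read out with a cell viability assay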
KG-1 = type: functional, cell-based, Homo sapiens; settings: Homo sapiens, KG-1;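 also: growth inhibition of KG-1 cells, read out by a cell viability assay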
Description: SANGER: Inhibition of human KG-1 cell growth in a cell viability assay.

LOX IMVI = type: functional, cell-based, Homo sapiens; settings: Homo sapiens, LOX IMVI
Description: SANGER: Inhibition of human LOXIMVI cell growth in a cell viability assay.

SJSA-1 = type: functional, cell-based, Homo sapiens; settings: Homo sapiens, SJSA-1;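 also: growth inhibition of human SJSA-1 cells, read out through a cell viability measurement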
Description: SANGER: Inhibition of human SJSA-1 cell growth in a cell viability assay.

SK-N-DZ = type: functional, cell-based, Homo sapiens; settings: Homo sapiens, SK-N-DZ;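 also: growth inhibition of the cancer cell line, read out through a viability assay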
Description: SANGER: Inhibition of human SK-N-DZ cell growth in a cell viability assay.

TE-1 = type: functional, cell-based, Homo sapiens; settings: Homo sapiens, TE-1;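 also: growth inhibition of the human TE-1 cell line, read out with a cell viability assay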
RH-1 = type: functional, cell-based, Homo sapiens; settings: Homo sapiens, RH-1;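 also: growth inhibition of human RH-1 cells, read out with a cell viability assay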
Description: SANGER: Inhibition of human RH-1 cell growth in a cell viability assay.

C2BBe1 = type: functional, cell-based, Homo sapiens; settings: Homo sapiens, C2BBe1;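 also: growth inhibition of C2BBe1 cells, read out through a viability assay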
Description: SANGER: Inhibition of human C2BBe1 cell growth in a cell viability assay.

AM-38 = type: functional, cell-based, Homo sapiens; settings: Homo sapiens, AM-38;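 also: growth inhibition of AM-38 cells of human origin, read out by a cell viability assay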
Description: SANGER: Inhibition of human AM-38 cell growth in a cell viability assay.

EW-18 = type: functional, cell-based, Homo sapiens; settings: Homo sapiens, EW-18;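 also: growth inhibition of EW-18 cells, read out by a cell viability assay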
Description: SANGER: Inhibition of human EW-18 cell growth in a cell viability assay.

NCI-H226 = type: functional, cell-based, Homo sapiens; settings: Homo sapiens, NCI-H226;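 also: cell viability read-out used to gauge growth inhibition of the cells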
Description: SANGER: Inhibition of human NCI-H226 cell growth in a cell viability assay.

DSH1 = type: functional, cell-based; settings: Homo sapiens;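 also: growth inhibition of human DSH1 cells, measured with a cell viability readout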
Description: SANGER: Inhibition of human DSH1 cell growth in a cell viability assay.

IA-LM = type: functional, cell-based; settings: Homo sapiens;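 also: cell viability assay measuring growth inhibition of human IA-LM cells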
Description: SANGER: Inhibition of human IA-LM cell growth in a cell viability assay.

IST-MES1 = type: functional, cell-based, Homo sapiens; settings: Homo sapiens, IST-MES1;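 also: growth inhibition of IST-MES1 cells, measured with a cell viability assay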
Description: SANGER: Inhibition of human IST-MES1 cell growth in a cell viability assay.

EOL1 = type: functional, cell-based, Homo sapiens; settings: Homo sapiens, EOL1;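 also: growth inhibition of EoL-1 cells, read out by a cell viability assay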
TE-5 = type: functional, cell-based, Homo sapiens; settings: Homo sapiens, TE-5;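 also: inhibition of cell growth, read out by a cell viability assay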
Description: SANGER: Inhibition of human TE-5 cell growth in a cell viability assay.

SW 962 = type: functional, cell-based, Homo sapiens; settings: Homo sapiens, SW 962;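 also: growth inhibition of human SW962 cells, read out by a cell viability assay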
ES1 = type: functional, cell-based, Homo sapiens; settings: Homo sapiens, ES1
NCI-H23 = type: functional, cell-based, Homo sapiens; settings: Homo sapiens, NCI-H23;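 also: cell viability assay measuring growth inhibition of NCI-H23 cells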
Description: SANGER: Inhibition of human NCI-H23 cell growth in a cell viability assay.

NCI-H1838 = type: functional, cell-based, Homo sapiens; settings: Homo sapiens, NCI-H1838;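 also: growth inhibition of NCI-H1838 cells, determined with a cell viability readout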
Description: SANGER: Inhibition of human NCI-H1838 cell growth in a cell viability assay.

SHP77 = type: functional, cell-based, Homo sapiens, SHP-77; settings: Homo sapiens, SHP77;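 also: growth inhibition of human SHP-77 cells measured by a cell viability assay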
A253 cell line = type: functional, cell-based, Homo sapiens; settings: Homo sapiens, A253;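 also: growth inhibition of A253 cells, read out with a cell viability assay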
Description: SANGER: Inhibition of human A253 cell growth in a cell viability assay.

MPP-89 = type: functional, cell-based, Homo sapiens; settings: Homo sapiens, MPP-89;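 also: growth inhibition of human MPP-89 cells, read out with a cell viability assay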
Description: SANGER: Inhibition of human MPP-89 cell growth in a cell viability assay.

SF-126 = type: functional, cell-based, Homo sapiens; settings: Homo sapiens, SF-126;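 also: growth inhibition of human SF126 cells, read out with a cell viability assay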
NB13 = type: functional, cell-based, Homo sapiens; settings: Homo sapiens, NB13;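 also: cell viability readout measuring growth inhibition of human NB13 cells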
Description: SANGER: Inhibition of human NB13 cell growth in a cell viability assay.

HAL-01 = type: functional, cell-based, Homo sapiens; settings: Homo sapiens, HAL-01;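 also: growth inhibition of human HAL-01 cells, read out with a cell viability assay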
Description: SANGER: Inhibition of human HAL-01 cell growth in a cell viability assay.

SK-PN-DW = type: functional, cell-based, Homo sapiens; settings: Homo sapiens, SK-PN-DW;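 also: growth inhibition measured with a viability assay on these cells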
Description: SANGER: Inhibition of human SK-PN-DW cell growth in a cell viability assay.

Lu-65 = type: functional, cell-based, Homo sapiens; settings: Homo sapiens, Lu-65;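 also: growth inhibition of Lu-65 cancer cells, read out by a cell viability assay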
Description: SANGER: Inhibition of human LU-65 cell growth in a cell viability assay.

KLE = type: functional, cell-based; settings: Homo sapiens;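 also: growth inhibition of human KLE cells, read out with a cell viability assay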
Description: SANGER: Inhibition of human KLE cell growth in a cell viability assay.

CCRF-CEM = type: functional, cell-based, Homo sapiens; settings: Homo sapiens, CCRF-CEM;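 also: inhibition of CCRF-CEM cell growth, measured by a cell viability assay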
Description: SANGER: Inhibition of human CCRF-CEM cell growth in a cell viability assay.

KE-37 = type: functional, cell-based, Homo sapiens; settings: Homo sapiens, KE-37;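 also: growth inhibition of KE-37 cells, read out with a cell viability assay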
Description: SANGER: Inhibition of human KE-37 cell growth in a cell viability assay.

KM12 = type: functional, cell-based, Homo sapiens; settings: Homo sapiens, KM12;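 also: KM12 cell growth inhibition, read out with a cell viability assay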
Description: SANGER: Inhibition of human KM12 cell growth in a cell viability assay.

QIMR-WIL = type: functional, cell-based, Homo sapiens; settings: Homo sapiens, QIMR-WIL;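 also: growth inhibition of QIMR-WIL cells, read out with a cell viability assay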
Description: SANGER: Inhibition of human QIMR-WIL cell growth in a cell viability assay.

JAR = type: functional, cell-based, Homo sapiens; settings: Homo sapiens, JAR;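 also: growth inhibition of human JAR cells determined with a cell viability assay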
Description: SANGER: Inhibition of human JAR cell growth in a cell viability assay.

LS-513 = type: functional, cell-based, Homo sapiens; settings: Homo sapiens, LS-513
Description: SANGER: Inhibition of human LS-513 cell growth in a cell viability assay.

BV-173 = type: functional, cell-based, Homo sapiens; settings: Homo sapiens, BV-173
Description: SANGER: Inhibition of human BV-173 cell growth in a cell viability assay.

A101D = type: functional, cell-based, Homo sapiens; settings: Homo sapiens, A101D;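 also: growth inhibition of the cell line, measured with a viability assay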
Description: SANGER: Inhibition of human A101D cell growth in a cell viability assay.

HD-MY-Z = type: functional, cell-based, Homo sapiens; settings: Homo sapiens, HD-MY-Z;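 also: growth inhibition of HD-MY-Z cells, read out with a cell viability assay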
Description: SANGER: Inhibition of human HD-MY-Z cell growth in a cell viability assay.

Measured: pIC50

C=CC(=O)N1CCCC(Nc2nc(Nc3ccc(N(C)C(=O)CC)cc3)nc3[nH]cnc23)C1 (stereo not given)
< 4.99: SK-LMS-1 | BE-13 | ACN | ES3 | GI-1 | L-363 | MLMA | MZ7-mel | MOLT-4 | NH-12 | SW684; read-out: IC50 | MFM-223 | LAMA-84 | KG-1 | LOX IMVI | SJSA-1 | SK-N-DZ; read-out: IC50 | TE-1 | RH-1 | C2BBe1 | AM-38 | EW-18; read-out: IC50 | NCI-H226 | DSH1 | IA-LM | IST-MES1 | TE-5 | ES1 | NCI-H23 | NCI-H1838 | SHP77 | A253 cell line | MPP-89 | SF-126 | NB13 | HAL-01 | SK-PN-DW | Lu-65 | KLE | CCRF-CEM | KE-37 | KM12 | QIMR-WIL | JAR | LS-513 | BV-173 | A101D | HD-MY-Z
5.36: EOL1
5.29: SW 962

Cc1ccc(NC(=O)c2ccc(CN3CCN(C)CC3)cc2)cc1Nc1nccc(-c2cccnc2)n1 [IMATINIB]
< 5.70: SK-LMS-1 | BE-13 | ACN | ES3 | GI-1 | L-363 | MLMA | MZ7-mel | MOLT-4 | NH-12 | SW684 | MFM-223 | KG-1 | LOX IMVI | SJSA-1 | SK-N-DZ | TE-1 | RH-1 | C2BBe1 | AM-38 | EW-18 | NCI-H226 | DSH1 | IA-LM | IST-MES1 | EOL1 | TE-5 | SW 962 | ES1 | NCI-H23 | NCI-H1838 | SHP77 | A253 cell line | MPP-89 | SF-126 | NB13 | HAL-01 | SK-PN-DW | Lu-65 | KLE | CCRF-CEM | KE-37 | KM12 | QIMR-WIL | JAR | LS-513 | A101D | HD-MY-Z
6.73: BV-173
7.14: LAMA-84
